Target: Human Factor D (Homo sapiens (Human), UniProt P00746)
Experiment: Human Factor D Assay
Type: biochemical
Settings: Human Factor D 80 nM, substrate Z-L-Lys-SBzl, assay according to Example 3
Protocol: The assay according to Example 3 was used to determine the IC50's of the compounds. Other standard factor D inhibition assays are also available.
Human Factor D (purified from human serum, Complement Technology, Inc.) at 80 nM final concentration is incubated with test compound at various concentrations for 5 min at room temperature in 50 mM Tris, 1M NaCl, pH 7.5. A synthetic substrate Z-L-Lys-SBzl and DTNB (Ellman's reagent) are added to final concentrations of 100 μM each. Absorbance at 405 nm (A405) is recorded at 30 second intervals for 30 min using a microplate spectrophotometer. IC50 values are calculated by nonlinear regression of complement Factor D reaction rates as a function of test compound concentration.

Human Factor D, sequence (P00746 26-253): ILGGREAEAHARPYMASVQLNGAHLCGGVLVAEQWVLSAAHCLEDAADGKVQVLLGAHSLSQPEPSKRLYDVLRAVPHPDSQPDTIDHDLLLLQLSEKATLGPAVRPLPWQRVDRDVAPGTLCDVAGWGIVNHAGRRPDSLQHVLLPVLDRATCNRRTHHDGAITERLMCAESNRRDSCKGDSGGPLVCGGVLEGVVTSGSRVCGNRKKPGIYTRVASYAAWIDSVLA

Row | SMILES | IC50
1 | CC(=O)c1nn(CC(=O)N(C)[C@@H](C)C(=O)Nc2nc(Br)ccc2C)c2cc3c(cc12)-c1cnc(C)nc1C=CC3 [Compound 110, (S)-2-(2-(11-acetyl-3-methylpyrimido[4′,5′:6,7]cyclohepta[1,2-f]indazol-9(7H)-yl)-N-methylacetamido)-N-(6-bromo-3-methylpyridin-2-yl)propanamide] | < 1000 nM
2 | CC(=O)c1cn(CC(=O)N2[C@H](C(=O)Nc3nc(C(F)(F)F)ccc3Cl)C[C@@]3(C)C[C@@H]23)c2c(C)cc(-c3cnc4cc(C)nn4c3)cc12 [Compound 51, (1R,3S,5R)-2-(2-(3-acetyl-7-methyl-5-(2-methylpyr-azolo[1,5-a]pyrimidin-6-yl)-1H-indol-1-yl)acetyl)-N-(3-chloro-6-(trifluoro-methyl)pyridin-2-yl)-5-methyl-2-azabicyclo[3.1.0] hexane-3-carboxamide] | < 1000 nM
3 | CC(=O)c1cn(CC(=O)N2C[C@H](F)C[C@H]2C(=O)N[C@H](C)C(F)=C(C)C)c2c(C)cc(-c3cnc4cc(C)nn4c3)cc12 [Compound 34, (2S,4R)-1-(2-(3-acetyl-7-methyl-5-(2-methylpyr-azolo[1,5-a]pyrimidin-6-yl)-1H-indol-1-yl)acetyl)-4-fluoro-N-((R)-3-fluoro-4-methylpent-3-en-2-yl)-pyrrolidine-2-carboxamide] | < 1000 nM
4 | CC(=O)c1cn(CC(=O)N2[C@H](C(=O)Nc3nc(C(F)(F)F)ccc3C#N)C[C@@]3(C)C[C@@H]23)c2c(C)cc(-c3cnc4cc(C)nn4c3)cc12 [Compound 14, (1R,3S,5R)-2-(2-(3-acetyl-7-methyl-5-(2-methylpyr-azolo[1,5-a]pyrimidin-6-yl)-1H-indol-1-yl)acetyl)-N-(3-cyano-6-(trifluoro-methyl)pyridin-2-yl)-5-methyl-2-azabicyclo[3.1.0] hexane-3-carboxamide] | < 1000 nM
5 | CC(=O)c1cn(CC(=O)N2[C@H](C(=O)Nc3ccn(CC(F)(F)F)n3)C[C@@]3(C)C[C@@H]23)c2c(C)cc(-c3ccc4nc(C)nn4c3)cc12 [Compound 65, (1R,3S,5R)-2-(2-(3-acetyl-7-methyl-5-(2-methyl-[1,2,4]triazolo[1,5-a]pyr-idin-6-yl)-1H-indol-1-yl)-acetyl)-5-methyl-N-(1-(2,2,2-trifluoroethyl)-1H-pyrazol-3-yl)-2-azabicyclo [3.1.0]hexane-3-carbox-amide] | < 1000 nM
6 | CC(=O)c1cn(CC(=O)N2C[C@H]3C[C@H]3[C@H]2C(=O)N[C@H](C)C(F)=C(C)C)c2c(C)cc(-c3cnc4cc(C)nn4c3)cc12 [Compound 35, (1R,2S,5S)-3-(2-(3-acetyl-7-methyl-5-(2-methylpyr-azolo[1,5-a]pyrimidin-6-yl)-1H-indol-1-yl)acetyl)-N-((R)-3-fluoro-4-methyl-pent-3-en-2-yl)-3-azabi-cyclo[3.1.0]hexane-2-car-boxamide] | < 1000 nM
7 | CC(=O)c1cn(CC(=O)N2[C@H](C(=O)N[C@H](C)C(F)=C(C)C)C[C@@]3(C)C[C@@H]23)c2c(C)cc(-c3cnc4cc(C)nn4c3)cc12 [Compound 27, (1R,3S,5R)-2-(2-(3-acetyl-7-methyl-5-(2-methylpyr-azolo[1,5-a]pyrimidin-6-yl)-1H-indol-1-yl)acetyl)-N-((R)-3-fluoro-4-methyl-pent-3-en-2-yl)-5-methyl-2-azabicyclo[3.1.0]hexane-3-carboxamide] | < 1000 nM
8 | CC(=O)c1cn(CC(=O)N2[C@H](C(=O)Nc3nc(Br)cc(F)c3C)C[C@@]3(C)C[C@@H]23)c2c(C)cc(-c3cnc(C)nc3)cc12 [Compound 15, (1R,3S,5R)-2-(2-(3-acetyl-7-methyl-5-(2-methylpyr-imidin-5-yl)-1H-indol-1-yl)acetyl)-N-(6-bromo-4-fluoro-3-methylpyridin-2-yl)-5-methyl-2-azabicyclo [3.1.0]hexane-3-carbox-amide] | < 1000 nM
9 | COCc1ccc(C(F)(F)F)nc1NC(=O)[C@@H]1C[C@@]2(C)C[C@H]2N1C(=O)Cn1cc(C(C)=O)c2cc(-c3cnc4cc(C)nn4c3)c(F)c(C)c21 [Compound 2, (1R,3S,5R)-2-(2-(3-acetyl-6-fluoro-7-methyl-5-(2-methylpyrazolo[1,5-a]-pyrimidin-6-yl)-1H-indol-1-yl)acetyl)-N-(3-(meth-oxymethyl)-6-(trifluoro-methyl)pyridin-2-yl)-5-methyl-2-azabicyclo[3.1.0] hexane-3-carboxamide] | < 1000 nM
10 | CC(=O)c1cn(CC(=O)N2[C@H](C(=O)Nc3nc(C(F)(F)F)c(F)cc3C)C[C@@]3(C)C[C@@H]23)c2c(C)cc(-c3cnc(C)nc3)cc12 [Compound 71, (1R,3S,5R)-2-(2-(3-acetyl-7-methyl-5-(2-methylpyr-imidin-5-yl)-1H-indol-1-yl)acetyl)-N-(5-fluoro-3-methyl-6-(trifluorometh-yl)pyridin-2-yl)-5-methyl-2-azabicyclo[3.1.0]hexane-3-carboxamide] | < 1000 nM
11 | CC(=O)c1nn(CC(=O)N2[C@H](C(=O)Nc3nc(Br)c(F)cc3C)C[C@@]3(C)C[C@@H]23)c2c(C)cc(-c3cnc([C@H](C)O)nc3)cc12 [Compound 17, (1R,3S,5R)-2-(2-(3-acetyl-5-(2-((S)-1-hydroxyethyl)-pyrimidin-5-yl)-7-methyl-1H-indazol-1-yl)acetyl)-N-(6-bromo-5-fluoro-3-meth-ylpyridin-2-yl)-5-methyl-2-azabicyclo[3.1.0]hexane-3-carboxamide] | < 1000 nM
12 | CC(=O)c1cn(CC(=O)N2[C@H](C(=O)Nc3nc(C(F)(F)F)c(F)cc3C)C[C@@]3(C)C[C@@H]23)c2c(C)cc(-c3cnc4cc(C)nn4c3)cc12 [Compound 16, (1R,3S,5R)-2-(2-(3-acetyl-7-methyl-5-(2-methylpyr-azolo[1,5-a]pyrimidin-6-yl)-1H-indol-1-yl)acetyl)-N-(5-fluoro-3-methyl-6-(trifluoromethyl)pyridin-2-yl)-5-methyl-2-azabicyclo [3.1.0]hexane-3-carbox-amide] | < 1000 nM
13 | CC(=O)c1cn(CC(=O)N2[C@H](C(=O)Nc3nc(C(F)(F)F)cnc3C)C[C@@]3(C)C[C@@H]23)c2c(C)cc(-c3cnc(C)nc3)cc12 [Compound 59, (1R,3S,5R)-2-(2-(3-acetyl-7-methyl-5-(2-methylpyr-imidin-5-yl)-1H-indol-1-yl)acetyl)-5-methyl-N-(3-methyl-6-(trifluorometh-yl)pyrazin-2-yl)-2-azabi-cyclo[3.1.0]hexane-3-car-boxamide] | 1000 to 10000 nM
14 | CC(=O)c1cn(CC(=O)N2[C@H](C(=O)Nc3nc(C(F)(F)F)ccc3C)C[C@@]3(C)C[C@@H]23)c2c(C)nc(-c3cnc4cc(C)nn4c3)cc12 [Compound 55, (1R,3S,5R)-2-(2-(3-acetyl-7-methyl-5-(2-methylpyr-azolo[1,5-a]pyrimidin-6-yl)-1H-pyrrolo[2,3-c]pyr-idin-1-yl)acetyl)-5-methyl-N-(3-methyl-6-(trifluoro-methyl)pyridin-2-yl)-2-azabicyclo[3.1.0]hexane-3-carboxamide] | < 1000 nM
15 | CC(=O)c1cn(CC(=O)N2[C@H](C(=O)Nc3nc(C(F)(F)F)ccc3C)C[C@@]3(C)C[C@@H]23)c2c(CO)cc(-c3cnc4cc(C)nn4c3)cc12 [Compound 43, (1R,3S,5R)-2-(2-(3-acetyl-7-(hydroxymethyl)-5-(2-methylpyrazolo[1,5-a]pyr-imidin-6-yl)-1H-indol-1-yl)acetyl)-5-methyl-N-(3-methyl-6-(trifluorometh-yl)pyridin-2-yl)-2-azabi-cyclo[3.1.0]hexane-3-car-boxamide] | < 1000 nM
16 | CC(=O)c1cn(CC(=O)N2[C@H](C(=O)Nc3nc(C(F)(F)F)ccc3C)C[C@@]3(C)C[C@@H]23)c2c(C)cc(-c3ccc4nc(C#N)nn4c3)cc12 [Compound 22, (1R,3S,5R)-2-(2-(3-acetyl-5-(2-cyano-[1,2,4]triazolo [1,5-a]pyridin-6-yl)-7-methyl-1H-indol-1-yl)acet-yl)-5-methyl-N-(3-methyl-6-(trifluoromethyl)pyridin-2-yl)-2-azabicyclo[3.1.0] hexane-3-carboxamide] | < 1000 nM
17 | CC(=O)c1cn(CC(=O)N2[C@H](C(=O)Nc3nc(C(F)(F)F)ccc3C)C[C@@]3(C)C[C@@H]23)c2c(C)c(F)c(-c3cnc(C)nc3)cc12 [Compound 44, (1R,3S,5R)-2-(2-(3-acetyl-6-fluoro-7-methyl-5-(2-methylpyrimidin-5-yl)-1H-indol-1-yl)acetyl)-5-meth-yl-N-(3-methyl-6-(tri-fluoromethyl)pyridin-2-yl)-2-azabicyclo[3.1.0] hexane-3-carboxamide] | < 1000 nM
18 | CC(=O)c1cn(CC(=O)N2[C@H](C(=O)Nc3nc(C(F)(F)F)cc(F)c3C)C[C@@]3(C)C[C@@H]23)c2c(C)cc(-c3cnc(C)nc3)cc12 [Compound 54, (1R,3S,5R)-2-(2-(3-acetyl-7-methyl-5-(2-methylpyr-imidin-5-yl)-1H-indol-1-yl)acetyl)-N-(4-fluoro-3-methyl-6-(trifluorometh-yl)pyridin-2-yl)-5-methyl-2-azabicyclo[3.1.0]hexane-3-carboxamide] | < 1000 nM
19 | CC(=O)c1cn(CC(=O)N2[C@H](C(=O)Nc3nc(C(F)(F)F)c(F)cc3C)C[C@@]3(C)C[C@@H]23)c2c(C)cc(-c3ccc4nc(C)nn4c3)cc12 [Compound 19, (1R,3S,5R)-2-(2-(3-acetyl-7-methyl-5-(2-methyl-[1,2,4]triazolo[1,5-a]pyr-idin-6-yl)-1H-indol-1-yl)-acetyl)-N-(5-fluoro-3-methyl-6-(trifluorometh-yl)pyridin-2-yl)-5-methyl-2-azabicyclo[3.1.0]hexane-3-carboxamide] | < 1000 nM
20 | COCc1ccc(C(F)(F)F)nc1NC(=O)[C@@H]1C[C@@]2(C)C[C@H]2N1C(=O)Cn1cc(C(C)=O)c2cc(-c3ccc4nc(C)nn4c3)c(F)c(C)c21 [Compound 5, (1R,3S,5R)-2-(2-(3-acetyl-6-fluoro-7-methyl-5-(2-methyl-[1,2,4]triazolo[1,5-a]pyridin-6-yl)-1H-indol-1-yl)acetyl)-N-(3-(meth-oxymethyl)-6-(trifluoro-methyl)pyridin-2-yl)-5-methyl-2-azabicyclo[3.1.0] hexane-3-carboxamide] | < 1000 nM

— patent publication US20250197403A1, “HETEROARYL COMPOUNDS FOR TREATMENT OF COMPLEMENT FACTOR D MEDIATED DISORDERS” (Achillion Pharmaceuticals, Inc., priority 2020, published 2025)
